The subject of data set [1] is HeLa. The data set is described as follows: Induction of mitochondrial morphological changes in human HeLa cells assessed as disappearance of cristae and vacuolar mitochondrial formation at 10 uM incubated for 48 hrs by transmission electron microscopy. Type of data set: functional, cell-based.
The test system of data set [2] is HepG2. The data set is described as follows: Inhibition of mitochondrial respiration in human HepG2 cells assessed as decrease in oxygen consumption rate by Seahorse XF-bioenergetic system analysis. The data set is classed as functional, cell-based.
For data set [3], the system named is HeLa. The data set is described as follows: Inhibition of mitochondrial respiration in human HeLa cells assessed as decrease in basal respiration. Type of data set: functional, cell-based.
The target of data set [4] is T1, Glutathione reductase, mitochondrial (Homo sapiens) (UniProt P00390).
T1 sequence (whole entry): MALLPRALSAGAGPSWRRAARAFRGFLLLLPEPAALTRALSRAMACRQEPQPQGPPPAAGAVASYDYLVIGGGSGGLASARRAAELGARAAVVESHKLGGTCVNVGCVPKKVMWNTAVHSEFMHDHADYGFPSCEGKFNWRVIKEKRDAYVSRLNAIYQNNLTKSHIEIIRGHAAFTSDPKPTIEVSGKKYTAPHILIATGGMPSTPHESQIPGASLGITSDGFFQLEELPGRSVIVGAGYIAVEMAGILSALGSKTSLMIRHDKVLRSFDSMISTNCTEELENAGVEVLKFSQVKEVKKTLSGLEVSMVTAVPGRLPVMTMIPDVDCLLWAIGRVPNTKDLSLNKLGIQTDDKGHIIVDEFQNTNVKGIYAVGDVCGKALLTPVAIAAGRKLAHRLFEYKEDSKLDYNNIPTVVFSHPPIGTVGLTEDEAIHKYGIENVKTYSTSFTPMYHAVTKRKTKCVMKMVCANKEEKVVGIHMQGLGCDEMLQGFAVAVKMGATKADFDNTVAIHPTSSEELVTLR
Put plainly: Inhibition of glutathione reductase in human HeLa cells. The note with it: concentration not given here. Type of data set: cell-based.

In data set [5] the test system is HeLa. The data set is described as follows: Inhibition of mitochondrial respiration in human HeLa cells assessed as increase in proton leakage. The data set is classed as functional, cell-based.
The test system of data set [6] is HeLa. Put plainly: Decrease in reduced glutathione (GSH) levels in human HeLa cells. The data set is classed as functional, cell-based.
A short description of data set [7]: Drug uptake in human HeLa cells mitochondria measured after 6 hrs. The data set is classed as ADME.
Data set [8] deals with Cell membrane. Put plainly: Dissipation of mitochondrial membrane potential in human HeLa cells assessed as proportion of cells with high MMP at 5 uM measured after 24 hrs by JC-1 staining based flow cytometry (reference value: 96.54%). The note with it: Mitochondria.
For data set [9], the system named is Cell membrane. The data set is described as follows: Dissipation of mitochondrial membrane potential in human HeLa cells assessed as proportion of cells with low MMP at 0.5 uM measured after 24 hrs by JC-1 staining based flow cytometry (reference value: 3.01%). The note with it: Mitochondria. In general terms: A flow cytometer gives signals particle by particle.

Data set [10] has as its system HeLa. Put plainly: Induction of mitophagy in human HeLa cells assessed as localization of mitochondria in vacuoles at 10 uM incubated for 48 hrs by transmission electron microscopy. Type of data set: functional, cell-based.
Data set [11] deals with HepG2. The data set is described as follows: Cytotoxicity against human HepG2 cells assessed as reduction in cell viability measured after 48 hrs. The data set is classed as functional, cell-based. The note with it: HepG2, 48 h.
Another data set concerns A549. Put plainly: Cytotoxicity against human A549 cells assessed as reduction in cell viability measured after 48 hrs. Type of data set: functional, cell-based. The note with it: A549, 48 h.
Data set [12] concerns HeLa. The data set is described as follows: Induction of autophagy in human HeLa cells assessed as downregulation of p62 expression incubated for 24 hrs by immunoblotting analysis. The note with it: dose 0.5-10 µM. The data set is classed as functional, cell-based.
In data set [13] the test system is HepG2. The data set is described as follows: Inhibition of glycolysis in human HepG2 cels assessed as decrease in extracellular acidification rate. The data set is classed as functional, cell-based.
Data set [14] deals with HeLa. Put plainly: Inhibition of mitochondrial respiration in human HeLa cells assessed as decrease in oxygen consumption rate at 2 uM incubated for 24 hrs by Seahorse XF-bioenergetic system analysis. Type of data set: functional, cell-based.
The subject of data set [15] is Cell membrane. Put plainly: Dissipation of mitochondrial membrane potential in human HeLa cells assessed as increase in green fluorescence intensity at 0.5 to 5 uM measured after 24 hrs by JC-1 staining based fluorescence microscopy. The note with it: Mitochondria, dose 0.5-5 µM.
Data set [16] deals with Cell membrane. Put plainly: Dissipation of mitochondrial membrane potential in human HeLa cells assessed as proportion of cells with low MMP at 5 uM measured after 24 hrs by JC-1 staining based flow cytometry (reference value: 3.01%). The note with it: Mitochondria.
Data set [17] relates to Cell membrane. The data set is described as follows: Dissipation of mitochondrial membrane potential in human HeLa cells assessed as proportion of cells with high MMP at 0.5 uM measured after 24 hrs by JC-1 staining based flow cytometry (reference value: 96.54%). The note with it: Mitochondria.
The target of data set [18] is T2, Glutathione reductase, mitochondrial (Homo sapiens, UniProt P00390).
T2 sequence (P00390 whole entry): T1 sequence (whole entry)
Put plainly: Inhibition of glutathione reductase (unknown origin).

Data set [19] has as its system HeLa. Put plainly: Induction of mitophagy in human HeLa cells assessed as colocalization of mitochondria and lysosomes by confocal laser scanning microscopy. The data set is classed as functional, cell-based.
Data set [20] has as its system HeLa. The data set is described as follows: Induction of autophagy in human HeLa cells assessed as autophagosomes vacuole formation. The data set is classed as functional, cell-based.
Data set [21] has as its system HeLa. The data set is described as follows: Induction of autophagy in human HeLa cells assessed as increase in ratio of lipidated LC3B-II to LC3B-I incubated for 24 hrs by immunoblotting analysis. The note with it: dose 0.5-10 µM. The data set is classed as functional, cell-based. (In general: A western blot detects proteins with antibodies after separation by electrophoresis.)

The subject of data set [22] is HeLa. Put plainly: Cytotoxicity against human HeLa cells assessed as reduction in cell viability measured after 48 hrs. Type of data set: functional, cell-based.
Data set [23] concerns HeLa. The data set is described as follows: Induction of mitochondrial morphological changes in human HeLa cells assessed as increase in Mitofilin expression at 2 uM by immunofluorescence analysis. Type of data set: functional, cell-based.
Data set [24] concerns the target T1, Glutathione reductase, mitochondrial (Homo sapiens). The data set is described as follows: Inhibition of glutathione reductase in human HeLa cells mitochondria. The note with it: concentration not given here.
Data set [25] concerns HeLa. Put plainly: Inhibition of mitochondrial respiration in human HeLa cells assessed as decrease in ATP production capacity. The data set is classed as functional, cell-based.
The subject of data set [26] is HeLa. The data set is described as follows: Inhibition of glycolysis in human HeLa cells assessed as decrease in extracellular acidification rate at 2 uM. Type of data set: functional, cell-based.
The subject of data set [27] is HeLa. Put plainly: Increase in oxidized glutathione (GSSG) levels in human HeLa cells assessed as decrease in ratio of intracellular GSH to GSSG at 1 to 20 uM. Type of data set: functional, cell-based. The note with it: dose 1-20 µM.
A further data set has as its system MCF7. Put plainly: Cytotoxicity against human MCF7 cells assessed as reduction in cell viability measured after 48 hrs. The data set is classed as functional, cell-based. The note with it: MCF7, 48 h.
Data set [28] relates to HeLa. Put plainly: Induction of ROS production in human HeLa cells by DCFDA staining based fluorescence analysis. The data set is classed as functional, cell-based.
The subject of another data set is HCT-116. Put plainly: Cytotoxicity against human HCT-116 cells assessed as reduction in cell viability measured after 48 hrs. Type of data set: functional, cell-based. The note with it: HCT-116, 48 h.
Data set [29] relates to HeLa. Put plainly: Cytotoxicity against GR-knock out human HeLa cells assessed as reduction in cell viability at 10 uM incubated for 48 hrs. The data set is classed as functional, cell-based.
For data set [30], the system named is HeLa. The data set is described as follows: Induction of mitochondrial morphological changes in human HeLa cells assessed as multilayered vesicles formation at IC50 incubated for 48 hrs by transmission electron microscopy. Type of data set: functional, cell-based.
Data set [31] relates to HeLa. Put plainly: Decrease in reduced glutathione (GSH) levels in human HeLa cells at 1 to 5 uM incubated for 6 hrs by Thiol-tracker Violet based confocal imaging analysis. The note with it: dose 1-5 µM. The data set is classed as functional, cell-based.
Data set [32] can be described thus: Increase in oxidized glutathione (GSSG) levels in human HeLa cells relative to control. The data set is classed as functional.
The target in data set [33] is T1, Glutathione reductase, mitochondrial (Homo sapiens). The data set is described as follows: Covalent binding affinity to Cys278 residue of glutathione reductase (unknown origin) by mass spectrometry.
For data set [34], the system named is Cell membrane. Put plainly: Dissipation of mitochondrial membrane potential in human HeLa cells assessed as proportion of cells with high MMP measured after 24 hrs by JC-1 staining based flow cytometry (reference value: 96.54%). The note with it: Mitochondria.
The subject of data set [35] is Cell membrane. The data set is described as follows: Dissipation of mitochondrial membrane potential in human HeLa cells assessed as proportion of cells with low MMP measured after 24 hrs by JC-1 staining based flow cytometry (reference value: 3.01%). The note with it: Mitochondria.

Calls of active or inactive are those of the source. The calls are words filed in the database; no cut-off is given here.

A word on the inhibition: it is the change of the read-out against control, counted positive when it falls. By IC50 is commonly meant the concentration that inhibits the measured activity by half. `O=C(/C=C/c1cccc([N+](=O)[O-])c1)c1ccc(OCc2cn(CCCC[P+](c3ccccc3)(c3ccccc3)c3ccccc3)nn2)c(F)c1`: the result with HeLa [1], with HeLa [10], with Cell membrane [15], in the data set on HeLa [19], with HeLa [20] and with HeLa [23] was Active. The result (in the data set on HeLa [27]; with HeLa [28]; in the data set with HeLa [30]; in [33]) was Active. The inhibition entry in the data set on HepG2 [2], in the data set on HeLa [3], in the data set on HeLa [5], in the data set on HepG2 [13], in the data set on HeLa [14] and in the data set on HeLa [25] was “Active” each time. The inhibition result with HeLa [26] is “Active”. For the same molecule, the inhibition worked out at 20% in data set [4] and 50% in data set [24]. In addition, the inhibition result with HeLa [6] and with HeLa [31] was “inactive” throughout. For the same molecule, the Drug uptake in [7] was 33%. The Activity in the data set on Cell membrane [8] was 15.6%; in the data set on Cell membrane [9], 50.1%; with HeLa [12], “Dose-Dependent Effect”; in the data set on Cell membrane [16], 80.7%; in the data set on Cell membrane [17], 49.4%; with HeLa [21] it was “Dose-Dependent Effect”. The IC50 is 4.6 µM in the data set with HepG2 [11]; 10.2 µM with A549; 0.59 µM in data set [18] (read-out: IC50); 2.4 µM with HeLa [22]; 17.4 µM with MCF7; 8.2 µM with HCT-116. Further, the outcome with HeLa [29] was inactive. Further, in data set [32], the “fold change (FC)” value was found to be 2.
`COc1ccc(C(=O)/C=C/c2cccc([N+](=O)[O-])c2)cc1F` registered a Drug uptake in data set [7] of 12%. For the same molecule, the IC50 in the data set with HepG2 [11] was above 50 µM; with A549, above 100 µM; in data set [18], “Not Active”; with HeLa [22] it was above 50 µM; in the data set on MCF7, above 100 µM; in the data set on HCT-116, above 50 µM. The result in [33] was inactive.
As to `N#CC(C#N)=NNc1cccc(Cl)c1`, the Activity turned out to be 1.24% in the data set with Cell membrane [34] and 98.8% in the data set with Cell membrane [35].

For the origin of these results see ChEMBL document CHEMBL5325399, “Pleiotropic effects of a mitochondrion-targeted glutathione reductase inhibitor on restraining tumor cells” (Eur J Med Chem, 2023).
